# Data taken from ChEMBL document CHEMBL1138648, “Synthesis of new N-(2-(trifluoromethyl)pyridin-4-yl)anthranilic acid derivatives and their evaluation as anticancer agents” (2004).
# Legend:
# Format in all cases: functional
# BT-549 = test: Growth inhibitory activity against Breast cancer BT-549 cell line was determined; conditions: Homo sapiens
# MCF7 [1] = test: Growth inhibitory activity against Breast cancer MCF-7 cell line was determined; conditions: Homo sapiens
# HL-60 = test: Growth inhibitory activity against Leukemia HL-60(TB) cell line was determined; conditions: Homo sapiens
# OVCAR-3 = test: Growth inhibitory activity against Ovarian cancer OVCAR-3 cell line was determined; conditions: Homo sapiens
# Hs-578T = test: Growth inhibitory activity against Breast cancer HS 578T cell line was determined; conditions: Homo sapiens
# MDA-MB-231 = test: Growth inhibitory activity against Breast cancer MDA-MB-231/ATCC cell line was determined; conditions: Homo sapiens
# NCI-H322M = test: Growth inhibitory activity against non small cell lung cancer NCI-H322M cell line was determined; conditions: Homo sapiens
# LOX IMVI = test: Growth inhibitory activity against Melanoma LOX IMVI cell line; conditions: Homo sapiens
# DU-145 = test: Growth inhibitory activity against Prostate cancer DU-145 cell line was determined; conditions: Homo sapiens
# SW-620 = test: Growth inhibitory activity against colon cancer SW-620 cell line was determined; conditions: Homo sapiens
# MOLT-4 = test: Growth inhibitory activity against Leukemia MOLT-4 cell line was determined; conditions: Homo sapiens
# NCI-H460 [2] = test: In vitro percent of proliferation of vehicle treated NCI-H460 human lung cell lines was determined at 0.0010 M concentration
# OVCAR-8 = test: Growth inhibitory activity against Ovarian cancer OVCAR-8 cell line was determined; conditions: Homo sapiens
# HOP-62 = test: Growth inhibitory activity against non small cell lung cancer HOP-62 cell line was determined; conditions: Homo sapiens
# SK-MEL-5 = test: Growth inhibitory activity against Melanoma SK-MEL-5 cell line was determined; conditions: Homo sapiens
# NCI-H522 = test: Growth inhibitory activity against non small cell lung cancer H522 cell line was determined; conditions: Homo sapiens
# HCT-116 = test: Growth inhibitory activity against colon cancer HCT116 cell line was determined; conditions: Homo sapiens
# ACHN = test: Growth inhibitory activity against Renal cancer ACHN cell line was determined; conditions: Homo sapiens
# U-251 = test: Growth inhibitory activity against CNS cancer U251 cell line was determined; conditions: Homo sapiens
# EKVX = test: Growth inhibitory activity against non small cell lung cancer EKVX cell line was determined; conditions: Homo sapiens
# SF-268 [3] = test: Growth inhibitory activity against CNS cancer SF-268 cell line was determined; conditions: Homo sapiens
# NCI-H460 [4] = test: Growth inhibitory activity against non small cell lung cancer H460 cell line was determined; conditions: Homo sapiens
# SF-268 [5] = test: In vitro percent of proliferation of vehicle treated SF-268 human CNS cell lines was determined at 0.0010 M concentration
# RPMI-8226 = test: Growth inhibitory activity against Leukemia RPMI-8226 cell line was determined; conditions: Homo sapiens
# 786-0 = test: Growth inhibitory activity against Renal cancer 786-0 cell line was determined; conditions: Homo sapiens
# MCF7 [6] = test: In vitro percent of proliferation of vehicle treated MCF-7 human breast cell lines was determined at 0.0010 M concentration
# HCT-15 = test: Growth inhibitory activity against colon cancer HCT-15 cell line was determined; conditions: Homo sapiens
# RXF 393 = test: Growth inhibitory activity against Renal cancer RXF 393 cell line was determined; conditions: Homo sapiens
# SK-MEL-28 = test: Growth inhibitory activity against Melanoma SK-MEL-28 cell line was determined; conditions: Homo sapiens
# PC-3 = test: Growth inhibitory activity against Prostate cancer PC-3 cell line was determined; conditions: Homo sapiens
# TK-10 = test: Growth inhibitory activity against Renal cancer TK-10 cell line was determined; conditions: Homo sapiens
# SF-295 = test: Growth inhibitory activity against CNS cancer SF-295 cell line was determined; conditions: Homo sapiens
# NCI-H23 = test: Growth inhibitory activity against non small cell lung cancer NCI-H23 cell line was determined; conditions: Homo sapiens
# SN12C = test: Growth inhibitory activity against Renal cancer SN12C cell line was determined; conditions: Homo sapiens
# OVCAR-5 = test: Growth inhibitory activity against Ovarian cancer OVCAR-5 cell line was determined; conditions: Homo sapiens
# SK-OV-3 = test: Growth inhibitory activity against Ovarian cancer SK-OV-3 cell line was determined; conditions: Homo sapiens
# NCI-H226 = test: Growth inhibitory activity against non small cell lung cancer NCI-H226 cell line was determined; conditions: Homo sapiens
# COLO 205 = test: Growth inhibitory activity against colon cancer COLO 205 cell line was determined; conditions: Homo sapiens
# KM12 = test: Growth inhibitory activity against colon cancer KM12 cell line was determined; conditions: Homo sapiens
# K562 = test: Growth inhibitory activity against Leukemia K-562 cell line was determined; conditions: Homo sapiens
# SNB-19 = test: Growth inhibitory activity against CNS cancer SNB-19 cell line was determined; conditions: Homo sapiens
# SR = test: Growth inhibitory activity against Leukemia SR cell line was determined; conditions: Homo sapiens
# HOP-92 = test: Growth inhibitory activity against non small cell lung cancer HOP-92 cell line was determined; conditions: Homo sapiens
# SF-539 = test: Growth inhibitory activity against CNS cancer SF-539 cell line was determined; conditions: Homo sapiens
# HCC 2998 = test: Growth inhibitory activity against colon cancer HCC2998 cell line was determined; conditions: Homo sapiens
# UACC-257 = test: Growth inhibitory activity against Melanoma UACC-257 cell line was determined; conditions: Homo sapiens
# NCI/ADR-RES = test: Growth inhibitory activity against Breast cancer NCI/ADR-RES cell line was determined; conditions: Homo sapiens
# A498 = test: Growth inhibitory activity against Renal cancer A498 cell line was determined; conditions: Homo sapiens
# A549 = test: Growth inhibitory activity against non small cell lung cancer A549/ATCC cells; conditions: Homo sapiens
# UACC-62 = test: Growth inhibitory activity against Melanoma UACC-62 cell line was determined; conditions: Homo sapiens
# HT-29 = test: Growth inhibitory activity against colon cancer HT-29 cell line was determined; conditions: Homo sapiens
# CCRF-CEM = test: Growth inhibitory activity against Leukemia CCRF-CEM cell line was determined; conditions: Homo sapiens
# CAKI-1 = test: Growth inhibitory activity against Renal cancer CAKI-1 cell line was determined; conditions: Homo sapiens
# M14 = test: Growth inhibitory activity against Melanoma M14 cell line was determined; conditions: Homo sapiens
# OVCAR-4 = test: Growth inhibitory activity against Ovarian cancer OVCAR-4 cell line was determined; conditions: Homo sapiens
# MDA-MB-435 = test: Growth inhibitory activity against Breast cancer MDA-MB-435 cell line was determined; conditions: Homo sapiens
smiles,measurement,setting,value
O=C(Oc1cccnc1)c1ccccc1Nc1ccnc(C(F)(F)F)c1,GI50,BT-549,10 nM
same,GI50,MCF7 [1],160 nM
same,GI50,HL-60,44 µM
same,GI50,OVCAR-3,140 nM
same,GI50,Hs-578T,570 nM
same,GI50,MDA-MB-231,390 nM
same,GI50,NCI-H322M,2900 nM
same,GI50,LOX IMVI,50 nM
same,GI50,DU-145,220 nM
same,GI50,SW-620,60 nM
same,GI50,MOLT-4,30 nM
same,Proliferation,NCI-H460 [2],22%
same,GI50,OVCAR-8,690 nM
same,GI50,HOP-62,10 nM
same,GI50,SK-MEL-5,170 nM
same,GI50,NCI-H522,410 nM
same,GI50,HCT-116,30 nM
same,GI50,ACHN,260 nM
same,GI50,U-251,520 nM
same,GI50,EKVX,390 nM
same,GI50,SF-268 [3],60 nM
same,GI50,NCI-H460 [4],340 nM
same,Proliferation,SF-268 [5],75%
same,GI50,RPMI-8226,50 nM
same,GI50,786-0,270 nM
same,Proliferation,MCF7 [6],62%
same,GI50,HCT-15,290 nM
same,GI50,RXF 393,340 nM
same,GI50,SK-MEL-28,660 nM
same,GI50,PC-3,420 nM
same,GI50,TK-10,270 nM
same,GI50,SF-295,310 nM
same,GI50,NCI-H23,60 nM
same,GI50,SN12C,410 nM
same,GI50,OVCAR-5,490 nM
same,GI50,SK-OV-3,250 nM
same,GI50,NCI-H226,510 nM
same,GI50,COLO 205,140 nM
same,GI50,KM12,310 nM
same,GI50,K562,40 nM
same,GI50,SNB-19,330 nM
same,GI50,SR,10 nM
same,GI50,HOP-92,480 nM
same,GI50,SF-539,10 nM
same,GI50,HCC 2998,360 nM
same,GI50,UACC-257,55 µM
same,GI50,NCI/ADR-RES,80 nM
same,GI50,A498,520 nM
same,GI50,A549,720 nM
same,GI50,UACC-62,350 nM
same,GI50,HT-29,50 nM
same,GI50,CCRF-CEM,30 nM
same,GI50,CAKI-1,50 nM
same,GI50,M14,30 nM
same,GI50,OVCAR-4,460 nM
same,GI50,MDA-MB-435,60 nM
